From patent US11058650B2, “Fatty acid amides for the prevention and/or treatment of steatohepatitis” (FUNDACIÓN RÚBLICA ANDALUZA PARA LA INVESTIGACIÓN DE MÁLAGA …, priority 2014, dated 2021) come the findings set out here.

For data set [1], the target named is CYP2D6 (Homo sapiens, UniProt P10635). Nature of the data set: biochemical.
For data set [2], the target named is CYP3A4 (Homo sapiens, UniProt P08684). Nature of the data set: biochemical.
For data set [3], the system named is obese rats. Briefly: Circulating pro-inflammatory cytokine level in obese rats (ELISA). The class given is in vivo, rat. As to conditions: 5 mg/kg i.p. 15 days. The method, then: (§1) All the experiments were carried out in obese (fa/fa) and thin (Fa/?) male Zucker rats 8-9 weeks of age. The animals were placed in individual cages in a room with controlled temperature, humidity and lighting (light/darkness cycles of 12 hours), and with free access to food and water (standard laboratory diet).
(§2) OLHHA was dissolved in a vehicle containing 5% Tween 80 in saline and intraperitoneally (i.p.) administered at a dose of 5 mg/kg (volume of 1 ml/kg body weight) at the beginning of the light cycle (9:00 am-10:00 am) for 15 consecutive days. Two hours after the last injection, the animals were euthanized using sodium pentobarbital (50 mg/kg, i.p.) and blood and liver samples were extracted. The blood was centrifuged at 2100×g for 8 minutes at 4° C. and the obtained plasma was kept at −80° C. for subsequent analysis. The liver samples were also stored at −80° C.
Circulating IL-6 and TNF-α levels were measured by means of ELISAs using commercial kits (Abcam).

For data set [4], the system named is obese rats. Nature of the data set: Kidney function-related plasma protein level in obese rats. The class given is in vivo, rat. As to conditions: 5 mg/kg i.p. 15 days. The method, then: as §1, §2
Commercial kits were used for determining serum creatinine and urea and they were analyzed in a Hitachi 737 automatic biochemistry analyzer.

Data set [5] deals with liver of Zucker rats. Nature of the data set: Gene expression (RT-qPCR) in the liver of Zucker rats. The class given is in vivo, rat. As for the experimental part: as §1, §2
For isolating total RNA from the liver, the samples were homogenized in Trizol and then purified using Qiagen RNeasy Minelute Cleanup Kit (selectively eliminates most molecules smaller than 200 nucleotides), also including a DNAse treatment. The total mRNA concentration was quantified using a spectrophotometer. In all the cases, the A260/280 ratio was between 1.8 and 2. Complementary DNA synthesis was carried out by reverse transcription using the Transcriptor Reverse Transcriptase kit (Transcriptor RT, Roche Diagnostic). For real-time PCR (RT-qPCR), an ABI PRISM® 7300 Real-Time PCR System (Applied Biosystems) and TaqMan probes were used. The single-product amplification was confirmed by means of analyzing the melting curves. The values of each sample were normalized with respect to the beta-actin constitutive gene. The relative quantification was calculated by means of the ΔΔCt method and normalized to the control group. The Taqman probes were obtained from the rat genome database of Applied Biosystems (http://bioinfo.appliedbiosystems.com/genome-database/gene-expression.html): […]

The test system of data set [6] is Zucker rats. Nature of the data set: Liver fat content and plasma triglyceride level of Zucker rats. The class given is in vivo, rat. As to conditions: obese Zucker rats, 5 mg/kg once a day 15 days. The method, then:
as §1, §2
The total liver fat content and the plasma triglyceride level were evaluated in thin and obese Zucker rats after a 15-day treatment with OLHHA (5 mg/kg, once a day). The samples for lipid analysis were obtained 2 hours after the last injection.
The Bligh & Dyer method (Bligh and Dyer, 1959) was followed for liver fat quantification. […] The fat content was expressed as % of tissue weight. […]

The subject of data set [7] is liver of obese Zucker rats. Nature of the data set: Histological evaluation of fatty liver and Caspase-3 in obese Zucker rats. The class given is in vivo, rat. The method, then: as §1, §2
The histological analysis of the livers of obese Zucker rats treated with the vehicle or with OLHHA confirmed the biochemistry total fat quantification results.

A short description of data set [8]: Body weight gain and food intake in Zucker rats, chronic treatment. As to conditions: 5 mg/kg i.p. daily 15 days. The class given is in vivo, rat. As for the experimental part:
as §1, §2
Animals received an injection (i.p.) of vehicle or OLHHA (5 mg/kg) daily for 15 consecutive days. For this experiment, 8 rats were used per group. The total body weight gain (g) and the accumulated food intake (g/kg of body weight) were evaluated daily.

Data set [9] addresses CYP2C9 (Homo sapiens, UniProt P11712). Nature of the data set: P450 cytochrome inhibition fluorometric assay CYP2C9. The class given is in vitro ADME. As for the experimental part: However, most human CYPs tolerate acetonitrile. […] OLHHA was tested in triplicate.
In data set [10] the target is T1, hERG channel (Homo sapiens, UniProt Q12809).
T1 construct: expressed in transfected cells; host or cells: HEK293
T1 sequence (Q12809 whole entry): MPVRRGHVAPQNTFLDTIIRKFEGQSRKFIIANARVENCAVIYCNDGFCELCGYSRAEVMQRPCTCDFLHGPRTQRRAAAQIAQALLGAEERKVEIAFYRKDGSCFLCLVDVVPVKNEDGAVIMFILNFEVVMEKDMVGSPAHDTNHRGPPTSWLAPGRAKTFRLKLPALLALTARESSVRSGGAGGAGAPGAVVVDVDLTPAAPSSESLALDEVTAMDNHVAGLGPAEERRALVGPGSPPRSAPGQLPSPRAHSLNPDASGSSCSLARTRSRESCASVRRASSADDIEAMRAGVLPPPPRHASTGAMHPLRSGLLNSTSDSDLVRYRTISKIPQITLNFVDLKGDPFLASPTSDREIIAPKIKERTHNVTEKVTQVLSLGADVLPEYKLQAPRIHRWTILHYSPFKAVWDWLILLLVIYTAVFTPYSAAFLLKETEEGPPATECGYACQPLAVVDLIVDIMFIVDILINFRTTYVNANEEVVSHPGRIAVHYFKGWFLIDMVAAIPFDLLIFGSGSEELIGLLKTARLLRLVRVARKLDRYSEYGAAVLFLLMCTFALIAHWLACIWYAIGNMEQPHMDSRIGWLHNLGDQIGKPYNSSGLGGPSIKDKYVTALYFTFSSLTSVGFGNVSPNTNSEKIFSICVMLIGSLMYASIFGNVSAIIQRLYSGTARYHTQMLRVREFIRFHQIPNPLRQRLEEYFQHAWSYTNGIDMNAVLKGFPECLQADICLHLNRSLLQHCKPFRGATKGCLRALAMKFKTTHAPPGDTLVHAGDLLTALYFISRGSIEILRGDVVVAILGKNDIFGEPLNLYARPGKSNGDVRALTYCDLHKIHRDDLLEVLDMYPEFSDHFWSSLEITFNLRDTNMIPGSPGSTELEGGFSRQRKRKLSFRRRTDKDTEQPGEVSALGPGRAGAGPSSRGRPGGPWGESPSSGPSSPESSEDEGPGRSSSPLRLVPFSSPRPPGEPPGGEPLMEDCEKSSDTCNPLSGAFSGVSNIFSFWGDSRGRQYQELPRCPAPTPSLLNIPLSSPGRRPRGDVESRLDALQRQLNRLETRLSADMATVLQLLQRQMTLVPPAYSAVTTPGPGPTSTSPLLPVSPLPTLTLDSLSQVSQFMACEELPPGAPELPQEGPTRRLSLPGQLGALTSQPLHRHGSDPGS
Nature of the data set: hERG channel functional assay (FluxOR thallium fluorescence). The class given is cell-based. As to conditions: HEK-293 cells expressing hERG. As for the experimental part: The hERG channel assay was used to identify if OLHHA may cause cardiotoxicity (FIG. 8). […] FluxOR™ is protected by AM groups which prevent fluorescence outside the cell. When it enters the cell, esterases in the cytosol remove the AM groups, and FluxOR™ will be converted to its active form in which it is capable of binding to thallium, which moves into the cytoplasm through the hERG channel, resulting in the emission of fluorescence. HEK293 cells expressing the hERG channel were seeded in poly-D-lysine-treated, black 96-well plates and incubated for 24 hours. […] Next, 20 μl of FluxOR™ dissolved in the assay buffer were added. The fluorochrome was incubated with the cells for 1 hour at room temperature. Next, the plates were washed with 50 μl of assay buffer and the compound OLHHA at a dilution of 1:200 (2 μl of OLHHA/400 μl of assay buffer) was added using an EP3 station. […] The plates were incubated with OLHHA for 30 minutes and then read in a […], which added 5 μl of stimulation buffer (Tl2SO4+K2SO4), and read the fluorescence for 120 s, which allowed analyzing channel kinetics.

Data set [11] deals with liver of obese Zucker rats. Briefly: Protein levels of lipid metabolism enzymes in the liver of obese Zucker rats. The class given is in vivo, rat. As to conditions: change seen in mRNA (reduction). As for the experimental part:
as §1, §2

Data set [12] relates to obese rats. Briefly: Hepatic serum transaminase level in obese rats. The class given is in vivo, rat. As to conditions: 5 mg/kg i.p. 15 days. The method, then: as §1, §2
Commercial kits were used for determining hepatic serum transaminases and they were analyzed in a Hitachi 737 automatic biochemistry analyzer.

The mark [13] stands for this setting: obese Zucker rats liver, immunohistochemistry.
Setting [14] is: obese Zucker rats, chronic treatment, vs vehicle.

Each structure is given as a SMILES string. Values joined by “and” are separate entries in the source; they are usually repeats but may differ in a detail not shown here. Identical values can stand only once. Like-named read-outs stand apart in the source and are kept apart here.

Sequence of CYP2C9 (P11712 whole entry): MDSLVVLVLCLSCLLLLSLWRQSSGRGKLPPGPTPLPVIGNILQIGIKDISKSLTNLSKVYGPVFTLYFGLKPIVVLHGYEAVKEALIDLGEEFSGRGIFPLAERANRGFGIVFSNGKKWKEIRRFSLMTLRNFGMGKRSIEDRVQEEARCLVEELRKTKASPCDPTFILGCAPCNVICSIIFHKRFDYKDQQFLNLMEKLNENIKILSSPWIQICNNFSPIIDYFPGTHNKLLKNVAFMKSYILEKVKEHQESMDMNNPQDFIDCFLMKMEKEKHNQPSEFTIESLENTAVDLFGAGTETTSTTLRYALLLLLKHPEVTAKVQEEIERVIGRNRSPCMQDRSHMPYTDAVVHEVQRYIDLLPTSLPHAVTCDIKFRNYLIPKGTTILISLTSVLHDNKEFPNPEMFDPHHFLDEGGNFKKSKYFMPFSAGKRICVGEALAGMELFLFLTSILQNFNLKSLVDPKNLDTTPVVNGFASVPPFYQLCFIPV
Sequence of CYP2D6 (P10635 whole entry): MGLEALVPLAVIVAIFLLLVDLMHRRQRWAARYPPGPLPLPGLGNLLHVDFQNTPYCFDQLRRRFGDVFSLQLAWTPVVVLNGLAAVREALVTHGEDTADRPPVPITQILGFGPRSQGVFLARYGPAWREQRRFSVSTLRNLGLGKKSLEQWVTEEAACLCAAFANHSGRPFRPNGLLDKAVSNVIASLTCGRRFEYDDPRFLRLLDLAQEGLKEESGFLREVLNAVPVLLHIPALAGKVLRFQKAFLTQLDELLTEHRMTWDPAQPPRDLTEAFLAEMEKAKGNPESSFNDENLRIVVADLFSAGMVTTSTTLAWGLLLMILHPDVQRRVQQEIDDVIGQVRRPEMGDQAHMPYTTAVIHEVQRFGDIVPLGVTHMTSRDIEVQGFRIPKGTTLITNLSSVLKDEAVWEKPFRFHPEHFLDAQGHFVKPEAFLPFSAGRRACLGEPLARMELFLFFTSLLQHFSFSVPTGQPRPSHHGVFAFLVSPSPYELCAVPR
Sequence of CYP3A4 (P08684 whole entry): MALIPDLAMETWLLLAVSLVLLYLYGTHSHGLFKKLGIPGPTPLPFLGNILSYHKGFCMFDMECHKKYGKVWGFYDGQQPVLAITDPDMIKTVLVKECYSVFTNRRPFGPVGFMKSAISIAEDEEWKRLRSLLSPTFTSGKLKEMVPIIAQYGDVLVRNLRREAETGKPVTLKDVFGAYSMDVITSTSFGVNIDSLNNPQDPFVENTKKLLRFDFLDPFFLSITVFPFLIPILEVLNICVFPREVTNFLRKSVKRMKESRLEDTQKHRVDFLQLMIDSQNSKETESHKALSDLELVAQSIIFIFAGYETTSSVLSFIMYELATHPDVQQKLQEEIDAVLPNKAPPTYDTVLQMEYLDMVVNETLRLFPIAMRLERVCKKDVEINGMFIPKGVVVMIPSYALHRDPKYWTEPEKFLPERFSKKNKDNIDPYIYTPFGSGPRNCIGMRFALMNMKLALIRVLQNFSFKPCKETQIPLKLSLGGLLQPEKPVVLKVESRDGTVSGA

In the case of `CCCCCCCC/C=C\CCCCCCCC(=O)NC(C)Cc1ccc(O)c(O)c1` (stereo not shown) [OLHHA, N-(1-(3,4-dihydroxyphenyl)propan-2-yl)oleamide], the IC50 in data set [1] was 23.3 µM and > 10 µM. Also, the IC50 in [2] is 14.8 µM and > 10 µM. In addition, in [3], the “plasma IL6 levels” value is on record as “no changes were detected”. Also, the TNF-α level result in data set [3] (did not reach a degree of significance) is on record as “drop”. Also, the creatinine levels result in data set [4] is on record as “did not affect”. In data set [4] (vs vehicle, p<0.001), the urea levels result is given as “significant reduction”. In addition, in data set [5] (5 mg/kg i.p. 15 days), the “ACOX mRNA expression” value is listed as “significant increase”, the “FAS mRNA expression (fatty acid biosynthesis)” value was “significant reduction”, the “HMG-CoAR mRNA expression (cholesterol biosynthesis)” value was “significant reduction” and the “INSIG2 mRNA expression” value is listed as “significantly increased”. The “NAPE-PLD mRNA expression” value in data set [5] (5 mg/kg i.p. 15 days) is reported as “significantly reduced”. Moreover, the “L-FABP mRNA level” value in data set [5] (chronic treatment) is recorded as “increased”. In addition, the circulating triglycerides result in [6] (five-fold increase in obese vs thin) was “prevented these increases”. Further, in data set [6] (three-fold increase in obese vs thin), the “total liver fat content” value is “prevented these increases”. For the same compound, in [7] (setting [13]), the “expression of activated Caspase-3” value was “reduced the expression” and the “expression of total Caspase-3” value is reported as “reduced the expression”. Moreover, in data set [7] (setting [14]), the “apoptotic activity in liver” value is recorded as “reduction in apoptotic activity”; the “liver fat content (hematoxylin-eosin and oil red staining)” value is “reduction in liver fat content”. Moreover, in data set [8] (obese Zucker rats), the accumulated food intake entry is recorded as “did not cause any effect” and the body weight gain entry is “did not cause any effect”. For the same compound, the accumulated food intake entry in data set [8] (thin Zucker rats, starting on the fifth day, vs vehicle) is on record as “significant reduction”. Also, the body weight gain entry in [8] (thin Zucker rats, vs vehicle) is “significant inhibition”. Besides, the IC50 in data set [9] (degree of inhibition, read-out: CYP2C9 Inhibitor category) fell in the range of 1 to 10 µM. The IC50 in [9] (fluorometric assay, maximum dose 105 μM, read-out: CYP2C9 IC50) amounted to 6.8 µM. The same compound returned an IC50 in data set [10] (maximum concentration 150 μM) of more than 150 µM. In data set [11], the “FAS protein expression level” value was “confirmed at the protein expression level” and the “HMG-CoAR protein expression level” value is recorded as “confirmed at the protein expression level”. Moreover, in [12] (not statistically significant), the “aspartate aminotransferase (AST) level” value was “reduction”. In addition, the “alanine aminotransferase (ALT) level” value in data set [12] (statistically significant (p<0.05)) is reported as “reduction”. The “gamma-glutamyl transpeptidase (GGt)” value in data set [12] (vs vehicle) is “no effect was observed”.

Consider `CC(C)COCC(CN(Cc1ccccc1)c1ccccc1)N1CCCC1` (stereo not shown) [bepridil, reference compound], for which the IC50 at 30 min in [10] (human, HEK293 cells expressing the hERG channel, pH 7.4, probe FluxOR fluorescent dye / thallium ions, standard control inhibitors, unit M) was determined as 2.2 µM.
